pIC50: −log10 of the molar value.

Results on 1 compound are retold here after ChEMBL document CHEMBL5727880, “Amide compounds as kinase inhibitors, compositions and methods of treatment” (2020).

This experiment has as its target Rho-associated protein kinase 2 (Homo sapiens, UniProt O75116). Kind of experiment: Kinase Inhibition Assay: The following assay protocol is for measuring the phosphorylation of a peptide substrate (FAM-[…]-OH wherein FAM is carboxyfluorescein). The peptide is >98% purity by Capillary Electrophoresis. The peptide is phosphorylated by the protein kinase ROCK1 or ROCK2. The ROCK1 or ROCK2 enzyme, substrate, and cofactors (ATP and Mg2+) are combined in a well of a microtiter plate and incubated for 3 hours at 25° C. in the presence or absence of an inhibitor compound. At the end of the incubation, the reaction is quenched by the addition of an EDTA-containing buffer. The substrate and product are separated and quantified electrophoretically using the microfluidic-based LABCHIP® 3000 Drug Discovery System from Caliper Life Sciences (Hopkinton, Mass.).The components of the assay mixture are:100 mM HEPES, pH 7.50.1% BSA0.01% Triton X-1001 mM DTT10 mM MgCl210 μM Sodium Orthovanadate10 LM Beta-Glycerophosphate5 μM ATP (for ROCK1) or 7 μM ATP (for ROCK2)1% DMSO (from compound)1.25 μM FAM-[…]-OH3 nM ROCK1 or 2.5 nM ROCK2 enzymeSubstrate and product peptides present in each sample are separated electrophoretically using the LABCHIP® 3000 capillary electrophoresis instrument. As substrate and product peptides are separated two peaks of fluorescence are observed. […].

Sequence of Rho-associated protein kinase 2 (O75116 whole entry): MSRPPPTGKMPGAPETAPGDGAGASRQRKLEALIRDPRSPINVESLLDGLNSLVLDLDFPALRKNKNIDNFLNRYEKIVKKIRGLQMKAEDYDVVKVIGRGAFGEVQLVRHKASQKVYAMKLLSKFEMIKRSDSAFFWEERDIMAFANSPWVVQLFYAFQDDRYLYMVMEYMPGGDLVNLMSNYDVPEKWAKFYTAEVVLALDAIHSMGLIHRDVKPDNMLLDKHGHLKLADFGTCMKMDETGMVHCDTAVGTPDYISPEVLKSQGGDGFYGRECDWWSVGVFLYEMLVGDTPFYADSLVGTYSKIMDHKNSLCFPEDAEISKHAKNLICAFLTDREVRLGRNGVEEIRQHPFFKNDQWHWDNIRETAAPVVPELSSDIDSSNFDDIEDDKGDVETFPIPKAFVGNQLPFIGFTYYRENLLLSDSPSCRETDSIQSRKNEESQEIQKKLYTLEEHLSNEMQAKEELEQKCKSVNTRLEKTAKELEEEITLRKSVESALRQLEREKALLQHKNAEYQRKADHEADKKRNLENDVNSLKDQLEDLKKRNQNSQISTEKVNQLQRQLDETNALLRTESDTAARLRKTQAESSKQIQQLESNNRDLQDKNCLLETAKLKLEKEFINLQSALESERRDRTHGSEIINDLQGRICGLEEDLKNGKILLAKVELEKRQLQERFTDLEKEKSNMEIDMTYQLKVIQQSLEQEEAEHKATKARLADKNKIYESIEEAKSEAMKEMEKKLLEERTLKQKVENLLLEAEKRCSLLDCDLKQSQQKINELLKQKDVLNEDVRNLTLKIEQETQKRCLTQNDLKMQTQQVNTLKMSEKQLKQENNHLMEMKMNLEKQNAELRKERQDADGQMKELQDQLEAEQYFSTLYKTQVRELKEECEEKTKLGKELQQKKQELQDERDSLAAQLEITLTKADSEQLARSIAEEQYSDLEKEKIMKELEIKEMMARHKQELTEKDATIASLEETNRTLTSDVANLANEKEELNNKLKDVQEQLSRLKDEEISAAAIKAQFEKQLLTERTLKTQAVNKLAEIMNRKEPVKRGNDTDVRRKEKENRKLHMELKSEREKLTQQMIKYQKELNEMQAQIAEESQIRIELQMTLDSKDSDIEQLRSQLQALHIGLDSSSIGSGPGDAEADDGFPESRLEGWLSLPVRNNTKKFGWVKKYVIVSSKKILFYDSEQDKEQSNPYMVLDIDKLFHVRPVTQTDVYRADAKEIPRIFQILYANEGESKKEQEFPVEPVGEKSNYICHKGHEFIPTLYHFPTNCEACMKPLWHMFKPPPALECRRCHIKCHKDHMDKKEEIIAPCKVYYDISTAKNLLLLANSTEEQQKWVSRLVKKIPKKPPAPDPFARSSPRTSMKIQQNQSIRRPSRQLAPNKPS

`C[C@@H](NC(=O)c1ccc(-c2ccncc2)cc1)c1cccc(C(=O)NC2CCCC2)c1`: the pIC50 (in general, the negative decadic logarithm of the IC50, by convention in mol/L) is 8.92.
